target: GCN2 (Homo sapiens, UniProt Q9P2K8); test: TR-FRET biochemical assay for inhibition of GCN2 (Example 106, for Example 1-4BB); details: Table 8
Sequence (Q9P2K8 whole entry): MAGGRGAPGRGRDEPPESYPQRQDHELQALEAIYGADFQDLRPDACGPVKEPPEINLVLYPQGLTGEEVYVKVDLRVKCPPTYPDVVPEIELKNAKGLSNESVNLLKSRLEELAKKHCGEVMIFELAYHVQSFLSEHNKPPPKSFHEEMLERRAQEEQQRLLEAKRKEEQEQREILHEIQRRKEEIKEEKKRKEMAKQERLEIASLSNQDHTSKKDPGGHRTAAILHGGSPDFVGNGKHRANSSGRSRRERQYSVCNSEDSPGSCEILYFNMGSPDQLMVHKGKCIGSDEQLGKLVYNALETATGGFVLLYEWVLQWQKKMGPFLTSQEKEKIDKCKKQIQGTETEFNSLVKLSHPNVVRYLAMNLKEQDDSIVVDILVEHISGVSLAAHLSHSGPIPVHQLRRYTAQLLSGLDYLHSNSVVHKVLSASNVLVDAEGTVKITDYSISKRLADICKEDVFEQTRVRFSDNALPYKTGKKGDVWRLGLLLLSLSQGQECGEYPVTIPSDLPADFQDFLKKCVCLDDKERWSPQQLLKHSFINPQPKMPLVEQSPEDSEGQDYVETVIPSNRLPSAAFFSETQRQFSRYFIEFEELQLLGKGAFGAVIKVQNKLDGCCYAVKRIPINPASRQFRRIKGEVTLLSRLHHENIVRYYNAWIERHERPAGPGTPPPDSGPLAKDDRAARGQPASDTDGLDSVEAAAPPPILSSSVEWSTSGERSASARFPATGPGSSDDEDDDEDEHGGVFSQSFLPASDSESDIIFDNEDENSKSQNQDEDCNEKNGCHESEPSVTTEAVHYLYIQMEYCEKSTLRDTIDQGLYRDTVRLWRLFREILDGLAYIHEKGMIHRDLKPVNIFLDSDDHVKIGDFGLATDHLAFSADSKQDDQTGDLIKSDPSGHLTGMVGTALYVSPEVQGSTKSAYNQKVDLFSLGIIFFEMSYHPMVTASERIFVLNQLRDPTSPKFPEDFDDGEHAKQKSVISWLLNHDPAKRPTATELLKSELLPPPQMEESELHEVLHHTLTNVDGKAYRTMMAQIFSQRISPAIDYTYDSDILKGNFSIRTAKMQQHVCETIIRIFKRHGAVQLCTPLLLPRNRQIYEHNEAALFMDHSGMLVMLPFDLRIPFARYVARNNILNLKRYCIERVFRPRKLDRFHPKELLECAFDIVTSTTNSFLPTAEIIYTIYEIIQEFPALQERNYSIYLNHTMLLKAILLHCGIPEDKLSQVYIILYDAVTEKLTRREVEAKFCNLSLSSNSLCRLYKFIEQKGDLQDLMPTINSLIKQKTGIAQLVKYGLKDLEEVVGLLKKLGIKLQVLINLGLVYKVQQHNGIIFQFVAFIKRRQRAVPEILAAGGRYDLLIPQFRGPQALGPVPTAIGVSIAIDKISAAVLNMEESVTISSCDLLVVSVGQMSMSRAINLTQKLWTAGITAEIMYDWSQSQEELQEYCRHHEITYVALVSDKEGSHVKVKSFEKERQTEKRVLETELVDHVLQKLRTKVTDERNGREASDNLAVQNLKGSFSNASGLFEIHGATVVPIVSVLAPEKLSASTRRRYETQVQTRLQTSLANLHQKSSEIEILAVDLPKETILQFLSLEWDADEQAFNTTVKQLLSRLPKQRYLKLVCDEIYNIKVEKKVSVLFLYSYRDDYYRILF

IC50 [nM] | Compound
500 to 2500 | COc1ncc(Cl)cc1S(=O)(=O)Nc1ccc(F)c(-c2ccc3c(C(=O)N(C)C)n[nH]c3c2F)c1F [Example 2AS, 6-(3-((5-chloro-2-methoxy-pyridine)-3-sulfonamido)-2,6-difluorophenyl)-7-fluoro-N,N-dimethyl-1H-indazole-3-carboxamide]
< 500 | O=S(=O)(Nc1ccc(F)c(-c2ccc3c(-c4ncc[nH]4)n[nH]c3c2F)c1F)c1cccc(O)c1F [Example 2AQ, N-(2,4-difluoro-3-(7-fluoro-3-(1H-imidazol-2-yl)-1H-indazol-6-yl)phenyl)-2-fluoro-3-hydroxybenzene-sulfonamide]
< 500 | COc1ccc(Cl)c(S(=O)(=O)Nc2ccc(F)c(-c3ccc4c(-c5ncc[nH]5)n[nH]c4c3F)c2F)c1 [Example 2BA, 2-chloro-N-(2,4-difluoro-3-(7-fluoro-3-(1H-imidazol-2-yl)-1H-indazol-6-yl)phenyl)-5-methoxybenzene-sulfonamide]
< 500 | COC(=O)c1n[nH]c2c(F)c(-c3c(F)ccc(NS(=O)(=O)c4cc(Cl)cnc4OC)c3F)ccc12 [Example 4, Methyl 6-(3-((5-Chloro-2-methoxypyridine)-3-sulfonamido)-2,6-difluorophenyl)-7-fluoro-1H-indazole-3-carboxylate]

same assay, conditions: Table 9

Compound | IC50 [nM]
Cc1ccc(F)cc1S(=O)(=O)Nc1ccc(F)c(-c2ncc3c(-c4ncc[nH]4)n[nH]c3c2F)c1F [Example 38, N-[2,4-difluoro-3-[7-fluoro-3-(1H-imidazol-2-yl)-1H-pyrazolo[4,3-c]pyridin-6-yl]phenyl]-5-fluoro-2-methyl-benzenesulfonamide] | < 500
COc1ncc(F)cc1S(=O)(=O)Nc1cc(C#N)cc(-c2ccc3c(-c4ncc[nH]4)n[nH]c3c2F)c1F [Example 3CB, N-(5-cyano-2-fluoro-3-(7-fluoro-3-(1H-imidazol-2-yl)-1H-indazol-6-yl)phenyl)-5-fluoro-2-methoxypyridine-3-sulfonamide] | > 10000
Cc1ncc(F)cc1S(=O)(=O)Nc1ccc(F)c(-c2ccc3c(C(=O)NCCCN(C)C)n[nH]c3c2F)c1F [Example 3CI, 6-(2,6-difluoro-3-((5-fluoro-2-methylpyridine)-3-sulfonamido)phenyl)-N-(3-(dimethylamino)propyl)-7-fluoro-1H-indazole-3-carboxamide] | 500 to 2500
Cc1ncc(F)cc1S(=O)(=O)Nc1ccc(F)c(-c2ccc3c(C(N)=O)n[nH]c3c2F)c1F [Example 3BA, 6-(2,6-difluoro-3-((5-fluoro-2-methylpyridine)-3-sulfon-amido)phenyl)-7-fluoro-1H-indazole-3-carboxamide] | < 500
COc1ccc(NS(=O)(=O)c2cc(F)cnc2OC)c(F)c1-c1ccc2c(C(=O)NCCCO)n[nH]c2c1F [Example 25, 7-Fluoro-6-(2-fluoro-3-((5-fluoro-2-methoxypyridine)-3-sulfonamido)-6-methoxyphenyl)-N-(3-hydroxypropyl)-1H-indazole-3-carboxamide] | 2500 to 10000
NC(=O)c1n[nH]c2c(F)c(-c3c(F)ccc(NS(=O)(=O)c4cc(F)cc(CO)c4Cl)c3F)ccc12 [Example 4AB] | < 500

Results, then the compound that gave them:

IC50 [nM] | Compound
< 500 | NC(=O)c1n[nH]c2c(F)c(-c3c(F)ccc(NS(=O)(=O)c4cc(F)cc5c4CCC5O)c3F)ccc12 (centres unmarked) [Example 4R]
500 to 2500 | Cc1ccc(F)cc1S(=O)(=O)Nc1ccc(F)c(-c2cc3[nH]ncc3cn2)c1F [Example 4BB]
< 500 | COc1ncc(Cl)cc1S(=O)(=O)Nc1ccc(F)c(-c2ccc3c(C(=O)Nc4cnn(CCO)c4)n[nH]c3c2F)c1F [Example 3CT, 6-(3-((5-chloro-2-methoxy-pyridine)-3-sulfonamido)-2,6-difluorophenyl)-7-fluoro-N-(1-(2-hydroxyethyl)-1H-pyrazol-4-yl)-1H-indazole-3-carboxamide]
500 to 2500 | Cc1ccc(S(=O)(=O)Nc2ccc(F)c(-c3ccc4c(C(N)=O)n[nH]c4c3F)c2F)c(C)n1 [Example 3DL, 6-(3-((2,6-dimethylpyridine)-3-sulfonamido)-2,6-difluoro-phenyl)-7-fluoro-1H-indazole-3-carboxamide]
